Data reported in US4987150A, “Agent for inhibiting binding of 5-dihydro-testosterone with androgen receptor as well as process for obtaining same” (Kabushiki Kaisha Vitamin Kenkyusho, priority 1987, dated 1991).
pIC50: −log10 of the molar value.

Biological target: T1, androgen receptor (Mesocricetus auratus, UniProt A0A1U7QL32)
T1 construct: a sebaceous gland in flank organ was excised and homogenized; from tissue; host or cells: male Syrian hamster flank organ sebaceous gland, 16 hours after castration; supernatant of homogenate centrifuged at 30,000 rpm for 1 hour
T1 sequence (A0A1U7QL32 1-900): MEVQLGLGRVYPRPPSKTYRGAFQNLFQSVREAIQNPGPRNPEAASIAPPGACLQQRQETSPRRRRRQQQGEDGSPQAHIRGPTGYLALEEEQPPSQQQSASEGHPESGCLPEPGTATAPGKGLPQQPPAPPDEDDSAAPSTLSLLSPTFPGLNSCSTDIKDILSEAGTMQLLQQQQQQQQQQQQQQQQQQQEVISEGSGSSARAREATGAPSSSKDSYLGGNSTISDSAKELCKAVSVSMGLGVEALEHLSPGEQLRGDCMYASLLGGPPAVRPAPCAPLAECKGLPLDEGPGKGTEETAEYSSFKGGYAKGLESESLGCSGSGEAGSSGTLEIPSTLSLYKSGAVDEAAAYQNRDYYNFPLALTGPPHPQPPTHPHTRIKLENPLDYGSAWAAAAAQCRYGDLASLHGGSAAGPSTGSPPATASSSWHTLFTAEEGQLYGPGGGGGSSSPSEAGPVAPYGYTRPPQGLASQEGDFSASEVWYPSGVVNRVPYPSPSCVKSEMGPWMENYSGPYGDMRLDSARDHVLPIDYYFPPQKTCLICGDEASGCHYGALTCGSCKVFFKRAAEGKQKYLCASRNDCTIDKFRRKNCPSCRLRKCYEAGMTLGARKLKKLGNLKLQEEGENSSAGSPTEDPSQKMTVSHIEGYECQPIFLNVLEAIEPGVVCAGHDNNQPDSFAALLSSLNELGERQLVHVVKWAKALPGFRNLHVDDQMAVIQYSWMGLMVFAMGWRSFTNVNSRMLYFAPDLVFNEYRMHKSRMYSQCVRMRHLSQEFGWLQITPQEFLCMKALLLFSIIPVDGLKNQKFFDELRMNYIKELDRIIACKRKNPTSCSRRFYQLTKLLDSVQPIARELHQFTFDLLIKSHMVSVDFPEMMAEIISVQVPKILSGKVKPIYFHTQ
Assay: Inhibition of [3H]R1881 binding with androgen receptor (Pharmacological Test Example 1; also Test Example 2)
Set-up: species or system male Syrian hamster (sebaceous gland in flank organ)
Settings: chemically synthesized xanthones; calculated from inhibition rate; 1 nM [3H]R1881, 0° C., 16 hours; read-out: Concentration for 50% Inhibition
Experimental: (a) Preparation of androgen receptor
From a male Syrian hamster 16 hours after castration, a sebaceous gland in flank organ was excised and homogenized in 5-10 times (volume) of 50 mM-Tris-HCl buffer (pH 7.4) containing 1.5 mM-EDTA, 1 mM-DTT, 10 mM-Na2 MoO4, and 10% (w/v) glycerol. The homogenate was centrifuged at 3,000 rpm and 0°-4° C. for 10 minutes to obtain the supernatant, which was further centrifuged at 30,000 rpm and 0°-4° C. for 1 hour to obtain the supernatant to be employed as androgen receptor.
(b) Determination of inhibitory activity
Then the mixture was added with a suspension (500 μl) of 0.5% charcoal and 0.05% dextran T-70. After standing at 0° C. for 10 minutes, the mixture was centrifuged at 3,000 rpm for 10 minutes. The supernatent (300 μl) was mixed with a liquid scintillator to measure the radioactivity due to binding of [^3 H]R1881 with the androgen receptor in scintillation counter. The inhibition rate of each extract was calculated according to the following equation.
Inhibition (%)=[(c-s)/c]×100 […]
c: specific binding amount of [^3 H]R1881 with androgen receptor without addition of test sample; and s: specific binding amount of [^3 H]R1881 with androgen receptor with addition of the test sample.

Compound	pIC50
O=c1c2c(O)cc(O)cc2oc2c(O)ccc(O)c12 [A]	5.10
O=c1c2c(O)cc(O)cc2oc2cc(O)cc(O)c12 [B]	5.29
O=c1c2ccc(O)cc2oc2c(O)ccc(O)c12 [C]	5.74
O=c1c2cccc(O)c2oc2cc(O)cc(O)c12 [D]	4.47
O=c1c2ccc(O)cc2oc2cc(O)cc(O)c12 [E]	5.39
O=c1c2c(O)cccc2oc2cc(O)cc(O)c12 [F]	4.70
O=c1c2ccccc2oc2cc(O)cc(O)c12 [G]	4.28
O=c1c2ccc(O)cc2oc2cccc(O)c12 [H]	5.12

Same assay, conditions: statement in words

Compound	inhibition of binding of 5α-DHT with androgen receptor
O=c1c2c(O)cc(O)cc2oc2c(O)ccc(O)c12 [Test sample A, 1,3,5,8-Tetrahydroxyxanthone]	shows the inhibition of binding of 5α-DHT with androgen receptor

Test system: 5α-reductase
Assay: not given
Settings: reported in Jap. Pat. No. 60-126218 (A); cited from earlier work

Compound	inhibition of the activity of 5α-reductase
CC1(C)CC[C@]2(C(=O)O)CC[C@]3(C)C(=CC[C@@H]4[C@@]5(C)CC[C@H](O)C(C)(C)[C@@H]5CC[C@]43C)[C@@H]2C1 [oleanolic acid]	showing the inhibition
